Experimental data reported in patent publication US12384769B2, “Heteroaryl-substituted aminoalkyl azole compounds as pesticides” (Elanco Animal Health GmbH, priority 2019, dated 2025).

What was measured:
Format in all cases: in vivo
Rhipicephalus sanguineus = Rhipicephalus sanguineus in-vitro contact test, adult brown dog ticks (RHIPSA Contact); conditions: 5 μg/cm^2 (=500 g/ha), after 48 hours, read-out: activity (efficacy, ticks dead or moribund)
In short: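 Acetone solution coated onto glass tube walls; 900 ppm gives 5 μg/cm^2. After drying, 5-10 adult ticks per tube kept at room temperature for 48 h, then placed on a 45-50° C heating plate up to 5 min; ticks unable to climb away counted dead or moribund, efficacy as % affected.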

Spodoptera frugiperda = Spodoptera frugiperda spray test; conditions: in Zea mays, 168 h, read-out: activity (mortality)
In short: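 Compound in acetone/DMF, diluted in water with 1000 ppm alkylarylpolyglycol ether emulsifier, sprayed on maize leaf sections. Dried leaves infested with fall armyworm larvae; % mortality after 7 days (100% = all killed, 0% = none).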

Diabrotica balteata = Diabrotica balteata spray test; conditions: 168 h, 500 g/ha (=160 μg/well), wheat seeds, after 7 days, read-out: activity (efficacy, seedlings grown)
In short: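 Germinated wheat seedlings (5 per well, on agar) sprayed with compound in acetone/DMF with emulsifier-containing water, then infested with 10–20 Diabrotica balteata larvae. Efficacy (%) scored after 7 days from seedling growth: 100% = growth as untreated uninfested control, 0% = no seedlings grown.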

C[C@H](Nc1nc2cc(C(F)(F)F)c(Cl)cc2o1)c1ncnn1-c1ncccn1 [Example I-001, 6-chloro-N-{(1S)-1-[1-(pyrimidin-2-yl)-1H-1,2,4-triazol-5-yl]ethyl}-5-(trifluoromethyl)-1,3-benzoxazol-2-amine]
100%: pest or weed control at 5 µg/cm2, 5 µg/cm2 (Rhipicephalus sanguineus) | mortality at 100 g/ha (Spodoptera frugiperda) | mortality at 500 g/ha (Spodoptera frugiperda) | pest or weed control at 160 µg/disc, 500 g/ha (Diabrotica balteata)
